Source: patent US20090069363A1, “Therapeutic Agent for Constipation” (SHIONOGI & CO. LTD. A LEGAL ENTITY OF JAPAN, priority 2004, published 2009)

Experiments:
[1] = tested on: morphine-induced gastrointestinal transit inhibition; assay: Influence on morphine-induced inhibitory action against transport competence of gastrointestinal tract (carbon powder transfer rate); assay type: in vivo; settings: mouse, 15 min before morphine 3 mg/kg s.c.
Experimental: After weighing each test compound, 0.5% methylcellulose (methylcellulose: Wako Pure Chemicals, water for injection: Otsuka Pharmaceutical Factory) was added, and the obtained mixture was well stirred to prepare solutions containing the test compound at final concentrations of 3 mg/mL, 1 mg/mL and 0.3 mg/mL, respectively.
After weighing each test compound, 5% xylitol (Kylit injection (registered trademark), Otsuka Pharmaceutical Factory) was added and the mixture was well stirred to prepare solutions containing the test compound at a final concentration of 1 mg/mL. The solutions having concentrations of 0.3 mg/mL and 0.1 mg/mL, respectively, were prepared by diluting the solution having the concentration of 1 mg/mL.
Preparation Method: After weighing, physiological saline was added and the mixture was well stirred to prepare a solution having a concentration of 0.3 mg/mL.
• Crj:CD-1(ICR) mouse (SPF, male, 5-week old, body weight: 25.6-32.0 g (oral administration), 26.3-33.0 g (subcutaneous administration), Charles River Laboratories Japan)
• Control Group: 8 animals; Solvent-administered Group: 8 animals; Compound 1: 3, 10 and 30 mg/kg Groups: each 8 animals; Compound 2: 3, 10 and 30. mg/kg Groups: each 8 animals; Compound 3: 3, 10 and 30 mg/kg Groups: each 8 animals
• Control Group: 8 animals, Solvent-administered Group: 8 animals; Compound 1: 3, 10 and 30 mg/kg Groups: each 8 animals; Compound 2: 3, 10 and 30 mg/kg Groups: each 8 animals; Compound 3: 3, 10 and 30 mg/kg Groups: each 8 animals
• Administration volume: 10 mL/kg • Administration Method: Oral administration was carried out using a disposable syringe and an oral feeding tube.
Subcutaneous administration was carried out using a disposable syringe and a disposable injection needle. • Administration Frequency: single
Mice fasted overnight from the evening on one day before the test were used. Each test compound was administered, and 15 minutes later, morphine (3 mg/kg) was subcutaneously administered. 30 minutes after the administration of morphine, carbon powder (a suspension containing 5% of carbon powder suspended in 10% gum Arabic) was orally administered to each mouse in an amount of 0.1 mL, and the transfer rate (the distance which the carbon powder reached/the distance between the pylorus to cecum opening×100) was measured at 30 minutes after the administration of carbon powder. To the solvent-administered group, a solvent (methylcellulose or xylitol) was administered in place of the test substance solution. To the control group, none of the test substance, morphine and the solvent was administered and the transfer rate of the carbon powder was measured.

[2] = tested on: morphine-induced small intestine transit inhibition; assay: Influence on morphine-induced small intestine transit inhibition (Evans blue test meal); assay type: in vivo; settings: rat
Experimental: Using aqueous 0.5 w/v % Evans blue solution, 2.5 w/v % carboxymethylcellulose salt solution was prepared and used as the test meal.
Male Wistar rats (Crj. Wistar, Charles River Laboratories Japan, 6 to 7-week old) were used. The rats were fasted from not less than 20 hours before the beginning of the test, and water was given ad libitum.
The compound (I-1) synthesized in Example 1 was dissolved in a solvent (DMAA/Solutol/5% meglumine=15/15/70) • DMAA: N,N-dimethylacetamide (Kanto Chemical) • Solutol: Solutol (registered trademark) HS15 (BASF) • Meglumine: D(−)-N-methylglucamin (Merck)
Morphine hydrochloric acid salt (Dainippon Pharma) was dissolved in normal saline.
All of the test substance, solvent and morphine were administered in avolume of 2 mL/kg.
Each test substance in an amount of 0.03, 0.1, 0.3, 1 or 3 mg/kg (Test Substance—administered Groups) or the above-described solvent (Solvent-administered Group) was subcutaneously administered, and 75 minutes later, 3 mg/kg of morphine was subcutaneously administered to all groups. […]
The test meal in an amount of 2 mL/rat was orally administered at 30 minutes after the administration of morphine. […] The distance between the cardia and the ileocecum (full length of small intestine), and the distance up to the tip of the pigment (moving distance of the pigment) were measured. […]

[3] = test substance 1 mg/kg subcutaneous
[4] = test substance 3 mg/kg subcutaneous
[5] = test substance 10 mg/kg subcutaneous

Compound	Transfer Rate of Carbon Powder (%) [1, 3] [%]	Transfer Rate of Carbon Powder (%) ([1]; test substance 3 mg/kg oral)	Transfer Rate of Carbon Powder (%) [1, 4] [%]	Transfer Rate of Carbon Powder (%) ([1]; test substance 10 mg/kg oral)	Transfer Rate of Carbon Powder (%) [1, 5] [%]	Transfer Rate of Carbon Powder (%) ([1]; test substance 30 mg/kg oral)	ED50 against morphine-induced small intestine transit inhibition ([2]; test substance s.c. 75 min before morphine 3 mg/kg s.c., calculated from % MPE) [mg/kg]	antagonistic action against morphine-induced small intestine transit inhibition ([2]; test substance s.c., morphine 3 mg/kg s.c.)
CCOC(=O)c1ccc2c3c([nH]c2c1)[C@@H]1Oc2c(O)ccc4c2[C@@]12CCN(CC1CC1)[C@H](C4)[C@]2(O)C3 [Compound 2]	35 ± 3	43 ± 2	53 ± 3	38 ± 2	55 ± 2	52 ± 3	–	–
O=C(O)c1ccc2c3c([nH]c2c1)[C@@H]1Oc2c(O)ccc4c2[C@@]12CCN(CC1CC1)[C@H](C4)[C@]2(O)C3 [Compound I-1, 17-cyclopropylmethyl-6,7-didehydro-4,5α-epoxy-3,14β-dihydroxy-6′-carboxy-6,7-2′,3′-indolomorphinan]	–	–	–	–	–	–	0.29	exhibited antagonistic action
Cc1ccc(/C=C2\C[C@@]3(O)[C@H]4Cc5ccc(O)c6c5[C@@]3(CCN4CC3CC3)[C@@H](O6)C2=O)cc1 [Compound 3]	32 ± 2	–	43 ± 1	–	53 ± 3	–	–	–
Cn1c2c(c3ccccc31)C[C@@]1(O)[C@H]3Cc4ccc(O)c5c4[C@@]1(CCN3CC1CC1)[C@H]2O5 [Compound 1]	41 ± 2	38 ± 2	43 ± 3	35 ± 2	46 ± 3	40 ± 2	–	–
